Values joined by “and” are separate entries in the source; they are usually repeats but may differ in a detail not shown here. Identical values can stand only once.
Assays:
female ZDF rats = test: Serum triglycerides and cholesterol in female ZDF rats, Compound 1 and Compound 2 at 10 mg/kg; format: in vivo, rat; settings: 10 mg/kg oral
Experimental: A similar experiment to that described above was performed. Briefly, female ZDF rats (12 weeks old) were fed either a PM 5008 diet or a GMI 13004 diet. Control vehicle consisted of 2% DMSO and 98% corn oil. Compound 1 and Compound 2 were administered at a dosage of 10 mg/kg body weight. Dosings were administered at approximately 8 a.m. Serum was collected on the first day of dosing at approximately 8 a.m. (Day 1, 0 hour) and 2 p.m. (Day 1, 6 hour); the fourth day of dosing at approximately 8 a.m. (Day 4, 0 hour); and the last day of dosing at approximately 8 a.m. (Day 7, 0 hour) and 2 p.m. (Day 7, 6 hour). The levels of triglycerides and cholesterol in the serum samples were measured. The results are shown in Table 2 and are illustrated graphically in FIGS. 3A and 3B.

male SJL mice [1] = test: Serum triglycerides (STG) in male SJL mice; format: in vivo, mouse
Experimental: Male SJL mice were dosed orally with vehicle, Compound 1 (an RAR pan-antagonist), or Compound 3 (an RARE antagonist) for 4 consecutive days. The structure and synthesis of Compound 1 is described in Example I. The structure of Compound 3 is shown below, and the compound was synthesized using routine methods:
The test compounds were dissolved in corn oil and given at a dosage/volume of 20 mg/5 ml/kg.
On day 3, serum triglycerides (STG) were determined from samples collected at 7 a.m.
(§1) On day 4, animals were fasted after dosing, starting at 8 a.m. Following 6 hours of fasting, blood samples were collected prior to intravenous injection of WR-1339 at 100 mg/5 ml/kg. Additional serum samples were collected at 1 and 2 hours after WR-1339 injection. WR-1339 is a detergent that inactivates lipoprotein lipase and thus prevents the removal of triglycerides from circulation. By measuring the increase of STG after WR-1339 administration in fasted animals, the hepatic triglyceride (HTG) output during fasting can be estimated.
(§2) Due to the lack of effect of Compound 3 at 20 mg/kg, the dose was increased to 100 mg/kg in the same set of mice. STG was determined on day 3 prior to dosing (Day 3, 8 a.m.). […] To ensure that Compound 3 would be bioavailable, Compound 3 was dissolved in DMSO and given by intraperitoneal injections, once at 4 p.m. on day 3 and once at 8 a.m. on day 4, at a dosage of 100 mg/kg/injection. Administration of WR-1339 and blood collections on day 4 were similarly conducted as described above.

male SJL mice [2] = test: Hepatic triglyceride (HTG) output after WR-1339 injection in fasted male SJL mice; format: in vivo, mouse
Experimental: as §1, §2

[3] = tested on: chronic hypertriglyceridemic patients; settings: de Man et al. 2000; cited from earlier work
[4] = GMI 13004 diet, group mean of 5 rats, first day of dosing, 2 p.m.
[5] = GMI 13004 diet, group mean of 5 rats, first day of dosing, about 8 a.m. (baseline)
[6] = GMI 13004 diet, group mean of 5 rats, fourth day of dosing, 8 a.m.
[7] = GMI 13004 diet, group mean of 5 rats, last day of dosing, 2 p.m.
[8] = GMI 13004 diet, group mean of 5 rats, last day of dosing, 8 a.m.
[9] = GMI 13004 diet, individual animals, first day of dosing, 2 p.m.
[10] = GMI 13004 diet, individual animals, first day of dosing, about 8 a.m. (baseline)
[11] = GMI 13004 diet, individual animals, fourth day of dosing, 8 a.m.
[12] = GMI 13004 diet, individual animals, last day of dosing, 2 p.m.
[13] = GMI 13004 diet, individual animals, last day of dosing, 8 a.m.

## Cc1ccc(C2=CC(C)(C)Oc3c(Br)cc(C(=O)Nc4ccc(C(=O)O)c(F)c4)cc32)cc1 [Compound 2]
Female ZDF rats
  effect on lowering serum cholesterol: more modest effect
  serum triglycerides as % of pre-treatment levels: about 40%
Female ZDF rats; [4]
  Cholesterol day 1, 6 hr, Mean: 106
  Triglycerides day 1, 6 hr, Mean: 1321
Female ZDF rats; [5]
  Cholesterol day 1, 0 hr, Mean: 119
  Triglycerides day 1, 0 hr, Mean: 1471
Female ZDF rats; [6]
  Cholesterol day 4, 0 hr, Mean: 77
  Triglycerides day 4, 0 hr, Mean: 571
Female ZDF rats; [7]
  Cholesterol day 7, 6 hr, Mean: 62
  Triglycerides day 7, 6 hr, Mean: 602
Female ZDF rats; [8]
  Cholesterol day 7, 0 hr, Mean: 66
  Triglycerides day 7, 0 hr, Mean: 560
Female ZDF rats; [9]
  Cholesterol day 1, 6 hr: 114 and 84 and 90 and 108 and 132
  Triglycerides day 1, 6 hr: 1260 and 1338 and 1140 and 1344 and 1524
Female ZDF rats; [10]
  Cholesterol day 1, 0 hr: 120 (2×) and 96 (2×) and 162
  Triglycerides day 1, 0 hr: 1464 and 1194 and 1284 and 1668 and 1746
Female ZDF rats; [11]
  Cholesterol day 4, 0 hr: 84 and 66 and 72 (2×) and 90
  Triglycerides day 4, 0 hr: 642 and 804 and 210 and 630 and 570
Female ZDF rats; [12]
  Cholesterol day 7, 6 hr: 72 and 60 (2×) and 54 and 66
  Triglycerides day 7, 6 hr: 402 and 600 and 360 and 738 and 912
Female ZDF rats; [13]
  Cholesterol day 7, 0 hr: 78 (2×) and 60 (2×) and 54
  Triglycerides day 7, 0 hr: 294 and 588 and 474 and 726 and 720

## Cc1ccc(C2=CCC(C)(C)c3cc(O)c(C(=O)Nc4ccc(C(=O)O)c(F)c4)cc32)cc1 [Compound 3]
Male SJL mice [1]; 20 mg/kg oral daily
  non-fasting STG (Day 3, 8 a.m.): not observed
Male SJL mice [1]; 100 mg/kg intraperitoneal in DMSO
  STG 16 hours after a single intraperitoneal dose (Day 4, 8 a.m.): clear lowering of STG
Male SJL mice [1]; 100 mg/kg oral
  STG on day 3 prior to dosing (Day 3, 8 a.m.): no lowering of STG was observed
Male SJL mice [1]; 100 mg/kg/injection intraperitoneal
  STG after fasting (Day 4, 2 p.m.): effect disappeared after fasting
Male SJL mice [2]; 20 mg/kg oral daily for 4 days, fasted
  HTG output after WR-1339 injection: not observed
Male SJL mice [2]; 100 mg/kg/injection intraperitoneal, WR-1339, fasted
  HTG output: reduced

## CC(C)c1c(C(=O)Nc2ccccc2)c(-c2ccccc2)c(-c2ccc(F)cc2)n1CC[C@@H](O)C[C@@H](O)CC(=O)O [atorvastatin]
[3]
  effect on impaired vasodilation: reverse the impaired vasodilation
